Experimental data reported in article PMC4286194 (Biochemical Journal, 2015).
Read-outs that look alike come from different tables or passages of the source.

Legend:
[1] = tested on: Bone-marrow-derived macrophages; assay: IL-10 mRNA (qPCR) in LPS-stimulated macrophages; assay type: cell-based; settings: Mus musculus, Macrophage, read-out: EC50 for elevation of IL-10 mRNA
Description: Primary macrophages were generated by differentiating bone marrow from 6- to 12-week-old C57BL/6 mice for 7 days in Dulbecco's modified Eagle's medium (DMEM) supplemented with 5 ng/ml recombinant M-CSF (R&D systems), 2 mM glutamine, 10% FBS, penicillin and streptomycin. Bone-marrow-derived macrophages were differentiated on non-tissue-culture-treated plastic, harvested and replated at a density of 100000 cells/cm^2 per 0.1 ml on tissue culture-treated plastic in fresh medium before stimulation on day 8. RAW264.7 cells were cultured in DMEM containing 10% FBS, 2 mM glutamine and penicillin and streptomycin. […] Cells were treated for 1 h with or without inhibitors and then stimulated for up to 24 h with either 1 μg/ml Pam3CSK4 or 100 ng/ml LPS.
mRNA was extracted from cells using the MicroElute Total RNA kit following the manufacturers’ instructions (Omega Bio-Tek). cDNA was generated from 0.5 μg of total RNA using the iScript cDNA synthesis kit and quantified by quantitative real-time PCR (qPCR) using the SsoFast EvaGreen Supermix on a CFX384 real-time system (Bio-Rad Laboratories). The relative expression of each gene was calculated from CT values using the Pfaffl method and was normalized against the mRNA levels of housekeeping genes including 18S RNA and GAPDH.

[2] = tested on: Bone-marrow-derived macrophages; assay: Pro-inflammatory cytokine secretion (BIOPLEX); assay type: cell-based, mouse; settings: 3 μM bosutinib or 0.3 μM dasatinib 1 h, LPS 8 h
Description: The concentration of TNFα, IL-6, IL-10 and IL-12p40 in cell-free culture supernatants were measured using the Bio-Plex Pro Assay system (Bio-Rad).

BRSK2 = target: T1, BRSK2 (Homo sapiens, UniProt Q8IWQ3); assay: Kinase profiling; assay type: biochemical
T1 sequence (Q8IWQ3 1-736): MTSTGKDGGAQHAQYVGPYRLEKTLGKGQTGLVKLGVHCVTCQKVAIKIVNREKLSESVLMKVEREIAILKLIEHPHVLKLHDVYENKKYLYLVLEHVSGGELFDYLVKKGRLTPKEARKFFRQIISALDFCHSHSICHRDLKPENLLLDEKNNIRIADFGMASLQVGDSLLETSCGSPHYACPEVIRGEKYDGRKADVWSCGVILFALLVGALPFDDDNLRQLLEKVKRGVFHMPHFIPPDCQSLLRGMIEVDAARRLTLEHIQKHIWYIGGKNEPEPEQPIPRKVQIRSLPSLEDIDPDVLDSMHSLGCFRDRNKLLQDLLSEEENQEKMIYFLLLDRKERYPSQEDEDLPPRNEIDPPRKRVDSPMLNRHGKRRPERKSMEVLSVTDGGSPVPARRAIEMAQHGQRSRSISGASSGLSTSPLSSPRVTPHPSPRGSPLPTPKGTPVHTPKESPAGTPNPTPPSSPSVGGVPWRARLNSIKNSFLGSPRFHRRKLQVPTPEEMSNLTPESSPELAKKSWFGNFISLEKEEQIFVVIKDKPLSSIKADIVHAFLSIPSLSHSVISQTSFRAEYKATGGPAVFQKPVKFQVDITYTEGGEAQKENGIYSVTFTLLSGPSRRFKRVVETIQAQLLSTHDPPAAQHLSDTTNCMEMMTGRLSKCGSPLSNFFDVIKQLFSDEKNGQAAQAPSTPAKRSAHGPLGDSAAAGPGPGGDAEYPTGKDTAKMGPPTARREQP

CLK2 = CLK2 (Homo sapiens, UniProt P49760); assay: Kinase profiling; assay type: biochemical
Chain of CLK2 (P49760 whole entry): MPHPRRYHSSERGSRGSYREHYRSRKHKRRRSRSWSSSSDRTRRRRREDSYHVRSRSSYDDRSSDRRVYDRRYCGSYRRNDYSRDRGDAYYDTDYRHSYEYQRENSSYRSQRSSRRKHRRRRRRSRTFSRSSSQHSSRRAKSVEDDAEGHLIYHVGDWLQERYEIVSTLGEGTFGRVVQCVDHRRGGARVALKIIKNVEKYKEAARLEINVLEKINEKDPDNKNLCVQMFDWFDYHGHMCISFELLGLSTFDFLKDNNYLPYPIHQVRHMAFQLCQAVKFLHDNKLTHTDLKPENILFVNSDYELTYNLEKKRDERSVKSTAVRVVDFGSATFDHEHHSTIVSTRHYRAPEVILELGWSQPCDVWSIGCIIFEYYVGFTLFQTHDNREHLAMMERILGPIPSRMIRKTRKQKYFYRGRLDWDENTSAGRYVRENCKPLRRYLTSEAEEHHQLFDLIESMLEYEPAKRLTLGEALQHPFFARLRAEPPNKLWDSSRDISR

EF2K = EF2K (Homo sapiens, UniProt O00418); assay: Kinase profiling; assay type: biochemical
MARK2 = MARK2 (Homo sapiens, UniProt Q7KZI7); assay: Kinase profiling; assay type: biochemical
Chain of MARK2 (Q7KZI7 whole entry): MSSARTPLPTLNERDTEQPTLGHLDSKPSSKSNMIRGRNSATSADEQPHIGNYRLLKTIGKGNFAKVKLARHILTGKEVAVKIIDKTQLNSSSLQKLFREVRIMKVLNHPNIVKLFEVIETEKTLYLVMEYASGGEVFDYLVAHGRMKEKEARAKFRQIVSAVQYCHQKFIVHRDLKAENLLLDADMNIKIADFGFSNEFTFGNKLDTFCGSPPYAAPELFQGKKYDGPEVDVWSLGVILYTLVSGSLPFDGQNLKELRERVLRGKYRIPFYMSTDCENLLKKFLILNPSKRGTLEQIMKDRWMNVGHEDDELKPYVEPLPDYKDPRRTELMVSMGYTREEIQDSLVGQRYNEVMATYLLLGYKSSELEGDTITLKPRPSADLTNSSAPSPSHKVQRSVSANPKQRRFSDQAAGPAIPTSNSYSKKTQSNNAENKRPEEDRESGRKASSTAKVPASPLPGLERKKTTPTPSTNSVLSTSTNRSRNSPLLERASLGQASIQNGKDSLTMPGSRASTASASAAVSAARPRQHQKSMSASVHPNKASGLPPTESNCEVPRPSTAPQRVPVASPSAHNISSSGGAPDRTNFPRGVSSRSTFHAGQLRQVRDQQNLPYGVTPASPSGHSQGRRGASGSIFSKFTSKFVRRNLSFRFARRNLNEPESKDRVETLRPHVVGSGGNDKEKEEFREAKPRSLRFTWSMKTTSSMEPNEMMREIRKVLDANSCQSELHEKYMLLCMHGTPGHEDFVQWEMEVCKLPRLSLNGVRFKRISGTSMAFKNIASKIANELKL

MINK1 = MINK1 (Homo sapiens, UniProt Q8N4C8); assay: Kinase profiling; assay type: biochemical
Chain of MINK1 (Q8N4C8 whole entry): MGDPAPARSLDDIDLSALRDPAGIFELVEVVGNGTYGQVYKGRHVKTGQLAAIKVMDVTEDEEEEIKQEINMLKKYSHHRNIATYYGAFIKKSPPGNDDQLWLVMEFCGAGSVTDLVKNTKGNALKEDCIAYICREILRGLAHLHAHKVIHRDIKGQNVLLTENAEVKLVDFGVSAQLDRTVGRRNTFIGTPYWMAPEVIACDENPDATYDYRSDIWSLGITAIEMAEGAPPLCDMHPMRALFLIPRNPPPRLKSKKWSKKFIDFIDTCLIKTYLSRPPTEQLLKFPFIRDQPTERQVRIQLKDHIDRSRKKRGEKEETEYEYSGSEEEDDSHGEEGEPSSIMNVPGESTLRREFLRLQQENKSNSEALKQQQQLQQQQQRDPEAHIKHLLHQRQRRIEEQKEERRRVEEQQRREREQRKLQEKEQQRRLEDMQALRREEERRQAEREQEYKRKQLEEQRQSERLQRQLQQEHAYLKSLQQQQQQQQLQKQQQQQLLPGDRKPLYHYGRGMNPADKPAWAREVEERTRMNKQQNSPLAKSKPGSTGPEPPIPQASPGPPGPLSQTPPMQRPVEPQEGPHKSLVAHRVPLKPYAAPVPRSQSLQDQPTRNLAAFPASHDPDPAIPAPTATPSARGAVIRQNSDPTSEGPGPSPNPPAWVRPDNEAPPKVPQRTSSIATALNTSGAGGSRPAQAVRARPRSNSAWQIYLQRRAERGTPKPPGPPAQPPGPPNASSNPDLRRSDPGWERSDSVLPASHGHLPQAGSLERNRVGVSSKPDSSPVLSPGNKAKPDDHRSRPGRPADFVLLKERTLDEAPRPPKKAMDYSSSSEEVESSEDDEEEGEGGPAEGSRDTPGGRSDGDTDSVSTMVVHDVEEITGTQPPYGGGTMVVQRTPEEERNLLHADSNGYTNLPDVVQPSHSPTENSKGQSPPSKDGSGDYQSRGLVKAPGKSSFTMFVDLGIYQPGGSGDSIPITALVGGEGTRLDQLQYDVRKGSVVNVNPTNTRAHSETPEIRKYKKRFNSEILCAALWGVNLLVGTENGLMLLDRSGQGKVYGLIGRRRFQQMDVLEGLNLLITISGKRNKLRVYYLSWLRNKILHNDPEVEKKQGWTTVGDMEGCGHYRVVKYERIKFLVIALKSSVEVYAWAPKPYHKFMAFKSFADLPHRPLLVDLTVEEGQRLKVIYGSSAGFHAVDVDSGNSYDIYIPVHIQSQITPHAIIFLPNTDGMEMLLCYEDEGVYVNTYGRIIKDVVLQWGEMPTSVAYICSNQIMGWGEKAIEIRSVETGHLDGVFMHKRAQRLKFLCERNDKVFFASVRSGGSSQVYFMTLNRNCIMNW

p38 gamma MAPK = target: T2, p38 gamma MAPK (Homo sapiens, UniProt P53778); assay: Kinase profiling; assay type: biochemical
T2 sequence (P53778 1-367): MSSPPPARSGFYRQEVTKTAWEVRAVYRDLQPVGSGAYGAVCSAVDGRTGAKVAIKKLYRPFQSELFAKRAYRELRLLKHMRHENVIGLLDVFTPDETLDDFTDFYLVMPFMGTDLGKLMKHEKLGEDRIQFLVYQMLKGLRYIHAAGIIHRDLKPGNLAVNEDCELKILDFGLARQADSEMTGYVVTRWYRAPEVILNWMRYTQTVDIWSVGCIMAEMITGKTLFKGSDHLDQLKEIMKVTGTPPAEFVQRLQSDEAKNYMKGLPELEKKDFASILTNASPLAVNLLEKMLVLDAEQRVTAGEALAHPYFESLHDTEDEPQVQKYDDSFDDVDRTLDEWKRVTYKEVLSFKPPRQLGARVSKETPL

PINK = target: T3, PINK (Tribolium castaneum, UniProt D6WMX4); assay: Kinase profiling; assay type: biochemical
T3 sequence (D6WMX4 1-570): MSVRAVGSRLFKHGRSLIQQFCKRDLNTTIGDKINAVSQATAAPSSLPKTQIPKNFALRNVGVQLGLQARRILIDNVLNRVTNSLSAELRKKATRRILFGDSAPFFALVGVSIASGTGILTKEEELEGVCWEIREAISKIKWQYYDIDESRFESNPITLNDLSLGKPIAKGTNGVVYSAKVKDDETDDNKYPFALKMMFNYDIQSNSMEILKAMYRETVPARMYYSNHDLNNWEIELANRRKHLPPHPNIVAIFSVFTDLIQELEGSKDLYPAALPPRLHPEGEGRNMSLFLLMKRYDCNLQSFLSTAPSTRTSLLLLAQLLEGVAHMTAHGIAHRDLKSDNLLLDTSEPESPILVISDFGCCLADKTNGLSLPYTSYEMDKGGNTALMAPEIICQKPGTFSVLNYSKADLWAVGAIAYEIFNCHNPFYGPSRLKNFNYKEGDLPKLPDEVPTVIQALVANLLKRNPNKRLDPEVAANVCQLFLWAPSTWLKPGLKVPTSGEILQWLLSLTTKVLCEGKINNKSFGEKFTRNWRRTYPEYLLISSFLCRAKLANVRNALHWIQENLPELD

TrkA = TrkA (Homo sapiens, UniProt P04629); assay: Kinase profiling; assay type: biochemical
Chain of TrkA (P04629 33-796): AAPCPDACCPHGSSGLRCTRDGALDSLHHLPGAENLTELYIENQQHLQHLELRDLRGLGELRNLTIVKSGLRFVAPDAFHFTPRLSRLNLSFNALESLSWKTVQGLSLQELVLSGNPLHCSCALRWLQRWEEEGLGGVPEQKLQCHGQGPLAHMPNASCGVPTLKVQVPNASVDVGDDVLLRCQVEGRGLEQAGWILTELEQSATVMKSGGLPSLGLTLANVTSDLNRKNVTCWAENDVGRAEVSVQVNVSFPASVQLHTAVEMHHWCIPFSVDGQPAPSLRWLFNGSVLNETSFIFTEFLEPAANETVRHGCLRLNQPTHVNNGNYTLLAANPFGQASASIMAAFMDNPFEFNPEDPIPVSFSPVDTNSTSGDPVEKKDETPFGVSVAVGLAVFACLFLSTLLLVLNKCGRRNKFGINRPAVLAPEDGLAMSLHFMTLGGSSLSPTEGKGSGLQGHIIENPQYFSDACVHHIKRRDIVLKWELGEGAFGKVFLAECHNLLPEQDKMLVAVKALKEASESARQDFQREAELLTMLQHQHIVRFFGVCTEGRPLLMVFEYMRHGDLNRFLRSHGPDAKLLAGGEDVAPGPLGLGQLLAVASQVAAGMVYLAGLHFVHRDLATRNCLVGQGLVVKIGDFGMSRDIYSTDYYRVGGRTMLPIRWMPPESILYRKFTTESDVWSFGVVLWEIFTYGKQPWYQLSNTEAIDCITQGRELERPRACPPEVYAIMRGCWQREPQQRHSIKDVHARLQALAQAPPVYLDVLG

TTBK2 = TTBK2 (Homo sapiens, UniProt Q6IQ55); assay: Kinase profiling; assay type: biochemical
Chain of TTBK2 (Q6IQ55 whole entry): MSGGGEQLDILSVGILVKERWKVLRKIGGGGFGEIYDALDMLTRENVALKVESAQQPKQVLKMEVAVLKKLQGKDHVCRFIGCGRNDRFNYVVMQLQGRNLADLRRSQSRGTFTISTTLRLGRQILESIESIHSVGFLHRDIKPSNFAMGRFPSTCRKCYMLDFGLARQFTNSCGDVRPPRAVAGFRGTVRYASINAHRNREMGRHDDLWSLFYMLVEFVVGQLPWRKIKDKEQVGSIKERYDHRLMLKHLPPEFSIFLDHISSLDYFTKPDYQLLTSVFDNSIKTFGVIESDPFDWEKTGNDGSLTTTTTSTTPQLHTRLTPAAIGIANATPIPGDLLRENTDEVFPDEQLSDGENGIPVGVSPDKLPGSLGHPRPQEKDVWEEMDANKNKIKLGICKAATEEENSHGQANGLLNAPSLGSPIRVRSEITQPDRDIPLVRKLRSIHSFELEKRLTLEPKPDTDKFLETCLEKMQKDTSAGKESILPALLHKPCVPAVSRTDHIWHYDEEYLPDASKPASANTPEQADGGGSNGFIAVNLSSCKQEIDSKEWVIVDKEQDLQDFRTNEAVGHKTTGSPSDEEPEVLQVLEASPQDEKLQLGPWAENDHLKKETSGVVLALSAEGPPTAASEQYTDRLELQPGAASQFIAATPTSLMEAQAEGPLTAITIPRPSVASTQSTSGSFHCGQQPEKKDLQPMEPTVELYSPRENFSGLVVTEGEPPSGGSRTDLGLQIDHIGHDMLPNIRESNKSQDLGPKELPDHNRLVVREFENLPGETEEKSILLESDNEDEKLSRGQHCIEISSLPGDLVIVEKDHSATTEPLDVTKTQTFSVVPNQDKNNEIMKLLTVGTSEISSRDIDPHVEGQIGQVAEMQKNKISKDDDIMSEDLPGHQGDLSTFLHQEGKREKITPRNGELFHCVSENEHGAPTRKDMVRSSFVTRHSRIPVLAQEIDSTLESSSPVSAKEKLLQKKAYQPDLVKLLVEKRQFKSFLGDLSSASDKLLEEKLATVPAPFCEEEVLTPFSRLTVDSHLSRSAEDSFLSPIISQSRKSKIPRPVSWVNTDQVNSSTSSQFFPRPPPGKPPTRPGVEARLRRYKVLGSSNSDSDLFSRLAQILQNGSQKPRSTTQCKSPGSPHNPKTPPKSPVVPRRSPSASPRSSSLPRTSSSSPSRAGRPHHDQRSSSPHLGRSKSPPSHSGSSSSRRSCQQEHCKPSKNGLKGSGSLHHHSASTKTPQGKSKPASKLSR

Row | Compound | Production of IL-6, IL-12p40 and TNFα [2] | remaining activity at 0.1 µM (BRSK2) | remaining activity at 1 µM (BRSK2) | remaining activity at 0.1 µM (CLK2) | remaining activity at 1 µM (CLK2) | remaining activity at 0.1 µM (EF2K) | remaining activity at 1 µM (EF2K) | remaining activity at 0.1 µM (MARK2) | remaining activity at 1 µM (MARK2) | remaining activity at 0.1 µM (MINK1) | remaining activity at 1 µM (MINK1) | remaining activity at 0.1 µM (p38 gamma MAPK) | remaining activity at 0.1 µM (PINK) | remaining activity at 1 µM (PINK) | remaining activity at 0.1 µM (TrkA) | remaining activity at 1 µM (TrkA) | remaining activity at 0.1 µM (TTBK2) | remaining activity at 1 µM (TTBK2) | also measured
1 | Cc1nc(Nc2ncc(C(=O)Nc3c(C)cccc3Cl)s2)cc(N2CCN(CCO)CC2)n1 [Dasatinib] | inhibited | 102 ± 14% | 108 ± 13% | 120 ± 6% | 121 ± 6% | 104 ± 4% | 95 ± 5% | 118 ± 4% | 126 ± 2% | 90 ± 4% | 51 ± 1% | 100 ± 4% | 117 ± 1% | 133 ± 5% | 107 ± 11% | 88 ± 2% | 110 ± 5% | 117 ± 7% | EC50 ([1]; 1 h): 0.1 µM; remaining activity at 1 µM (p38 gamma MAPK; 1 µM): 105 ± 7%
2 | COc1cc(Nc2c(C#N)cnc3cc(OCCCN4CCN(C)CC4)c(OC)cc23)c(Cl)cc1Cl [Bosutinib, bosutinib] | inhibited | 107 ± 12% | 120 ± 4% | 75 ± 9% | 23% | 81 ± 2% | 95 ± 6% | 89 ± 8% | 68 ± 1% | 5 ± 1% | 1% | 88 ± 3% | 112 ± 9% | 125 ± 13% | 25 ± 2% | 7% | 87 ± 6% | 92 ± 6% | EC50 ([1]; drug 1 h, then LPS 1 h, qPCR, n=4): 0.32 µM
